Reference: patent US9079919B2 (HOFFMANN-LA ROCHE INC., priority 2011, dated 2015)

Key:
BACE2 = target: T1, BACE2 (Rattus norvegicus, UniProt Q6IE75); test: Assay for BACE inhibition by measuring cellular TMEM27 cleavage; type: cell-based; details: INS-TMEM27 cells (INS1e-derived), shed human TMEM27 by ELISA; read-out: BACE2 cell act. IC50
T1 construct: endogenous cellular BACE2 in the Ins1e rat cell line; endogenous in cells; host or cells: INS-TMEM27 (INS1e-derived rat cell line with doxycycline-inducible full-length human TMEM27)
T1 sequence (Q6IE75 63-514): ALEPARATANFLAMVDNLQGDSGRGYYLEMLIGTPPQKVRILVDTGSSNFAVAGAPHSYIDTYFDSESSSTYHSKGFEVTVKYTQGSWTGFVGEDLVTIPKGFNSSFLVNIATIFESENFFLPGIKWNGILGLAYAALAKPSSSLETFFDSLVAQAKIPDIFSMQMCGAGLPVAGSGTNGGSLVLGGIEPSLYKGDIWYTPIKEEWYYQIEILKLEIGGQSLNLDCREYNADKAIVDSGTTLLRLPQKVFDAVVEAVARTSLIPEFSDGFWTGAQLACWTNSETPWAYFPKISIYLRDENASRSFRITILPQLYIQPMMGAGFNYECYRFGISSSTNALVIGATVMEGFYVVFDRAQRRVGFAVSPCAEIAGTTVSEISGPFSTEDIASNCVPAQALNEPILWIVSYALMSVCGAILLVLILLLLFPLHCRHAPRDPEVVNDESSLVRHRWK
Excerpt: The assay uses the principle of inhibition of human TMEM27 cleavage by endogenous cellular BACE2 in the Ins1e rat cell line and shedding from the cell surface into the culture medium, followed by detection in an ELISA assay. Inhibition of BACE2 prevents the cleavage and shedding in a dose-dependent manner.
The stable cell line “INS-TMEM27” represents an INS1e-derived cell line with inducible expression (using the TetOn system) of full-length hTMEM27 in a doxycycline-dependent manner. The cells are cultured throughout the experiment in RPMI1640+ Glutamax (Invitrogen) Penicillin/Streptomycin, 10% Fetal bovine serum, […], […], 100 micrograms/ml G418 and 100 microgram/ml hygromycin and are grown inadherent culture at 37° C. in a standard CO2 cell culture incubator.
INS-TMEM27 cells are seeded in 96-well plates. After 2 days in culture, BACE2 inhibitor is added in a range of concentrations as required by the assay and after a further two hours, doxycycline is added to a final concentration of 500 ng/ml. The cells are incubated for a further 46 hours and the supernatant harvested for detection of shed TMEM27.
An ELISA assay (using a pair of mouse anti-human-TMEM27 antibodies, raised against the extracellular domain of TMEM27) is used for detection of TMEM27 in the culture medium. An EC50 for BACE2 inhibition is calculated using the ELISA readout for each inhibitor concentration with standard curve-fitting software such as XLFit for the Excel spreadsheet program.

BACE1 = target: T2, BACE1 (Homo sapiens, UniProt P56817); test: Cellular Aβ-lowering assay a) (Aβ40 ELISA); type: cell-based; details: cellular assay a): HEK293 cells expressing human APP695, Aβ40 in supernatant by ELISA after 18-20 hrs; read-out: BACE1 cell act. Aβ40 IC50
T2 construct: Human HEK293 cells which are stably transfected with a vector expressing a cDNA of the human APP wt gene (APP695); endogenous in cells; host or cells: HEK293 cells stably transfected with human APP695 (wt)
T2 sequence (P56817 46-501): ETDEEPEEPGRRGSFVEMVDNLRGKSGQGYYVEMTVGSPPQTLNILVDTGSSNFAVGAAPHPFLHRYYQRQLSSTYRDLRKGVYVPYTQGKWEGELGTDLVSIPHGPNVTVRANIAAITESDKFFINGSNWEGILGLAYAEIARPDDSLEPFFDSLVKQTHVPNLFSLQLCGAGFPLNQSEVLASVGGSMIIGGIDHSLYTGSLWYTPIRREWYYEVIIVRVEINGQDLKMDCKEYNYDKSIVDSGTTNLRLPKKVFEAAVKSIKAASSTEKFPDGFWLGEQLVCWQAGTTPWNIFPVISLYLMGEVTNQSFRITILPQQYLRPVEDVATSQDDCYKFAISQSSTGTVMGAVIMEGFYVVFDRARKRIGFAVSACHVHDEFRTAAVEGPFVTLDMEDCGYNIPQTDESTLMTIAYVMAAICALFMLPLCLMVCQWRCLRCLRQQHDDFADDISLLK
Protocol: a) Human HEK293 cells which are stably transfected with a vector expressing a cDNA of the human APP wt gene (APP695) were used to assess the potency of the compounds in a cellular assay. The cells were seeded in 96-well microtiter plates in cell culture medium (Iscove, plus 10% (v/v) fetal bovine serum, glutamine, penicillin/streptomycin) to about 80% confluence and the compounds were added at a 10× concentration in 1/10 volume of medium without FCS containing 8% DMSO (final concentration of DMSO was kept at 0.8% v/v). After 18-20 hrs incubation at 37° C. and 5% CO2 in a humidified incubator the culture supernatant was harvested for the determination of Aβ40 concentrations. 96 well ELISA plates (e.g., Nunc MaxiSorb) were coated with monoclonal antibody which specifically recognize the C-terminal end of Aβ40 (Brockhaus et al., NeuroReport 9, 1481-1486; 1998). After blocking of non-specific binding sites with e.g. 1% BSA and washing, the culture supernatants were added in suitable dilutions together with a horseradish peroxidase-coupled Aβ detection antibody (e.g., antibody 4G8, Senetek, Maryland Heights, Mo.) and incubated for 5 to 7 hrs. Subsequently the wells of the microtiter plate were washed extensively with Tris-buffered saline containing 0.05% Tween 20 and the assay was developed with tetramethylbenzidine/H2O2 in citric acid buffer. After stopping the reaction with one volume of 1N H2SO4 the reaction was measured in an ELISA reader at 450 nm wavelength. The concentrations of Aβ in the culture supernatants were calculated from a standard curve obtained with known amounts of pure Aβ peptide.

IC50 (BACE2) | IC50 (BACE1) | Structure (SMILES)
543 nM | 100 nM | NC1=N[C@@]2(CCCc3ccc(-c4cncc(Cl)c4)cc32)C(F)(F)CO1 [Example 1, (R)-7-(5-Chloropyridin-3-yl)-5′,5′-difluoro-3,4,5′,6′-tetrahydro-2H-spiro[naphthalene-1,4′-[1,3]oxazin]-2′-amine]
526 nM | 80 nM | N#Cc1cncc(-c2ccc3c(c2)[C@@]2(CCC3)N=C(N)OCC2(F)F)c1 [Example 2, (R)-5-(2′-Amino-5′,5′-difluoro-3,4,5′,6′-tetrahydro-2H-spiro[naphthalene-1,4′-[1,3]oxazine]-7-yl)nicotinonitrile]
2730 nM | 2450 nM | NC1=N[C@@]2(CCc3ccc(-c4cc(Cl)cc(Cl)c4)cc32)C(F)(F)CO1 [Example 8, (R)-6-(3,5-Dichlorophenyl)-5′,5′-difluoro-2,3,5′,6′-tetrahydrospiro[indene-1,4′-[1,3]oxazin]-2′-amine]
3580 nM | 790 nM | NC1=N[C@@]2(CCc3ccc(-c4cncc(Cl)c4)cc32)C(F)(F)CO1 [Example 9, (R)-6-(5-Chloropyridin-3-yl)-5′,5′-difluoro-2,3,5′,6′-tetrahydrospiro[indene-1,4′-[1,3]oxazin]-2′-amine]
116 nM | 5 nM | N#Cc1ccc(C(=O)Nc2ccc3c(c2)[C@@]2(CCC3)N=C(N)OCC2(F)F)nc1 [Example 13, (R)—N-(2′-Amino-5′,5′-difluoro-3,4,5′,6′-tetrahydro-2H-spiro[naphthalene-1,4′-[1,3]oxazine]-7-yl)-5-cyanopicolinamide]
13000 nM | 1110 nM | CC1(C)CC[C@@]2(N=C(N)OCC2(F)F)c2cc(NC(=O)c3ccc(C#N)cn3)ccc21 [Example 14, (R)—N-(2′-Amino-5′,5′-difluoro-4,4-dimethyl-3,4,5′,6′-tetrahydro-2H-spiro[naphthalene-1,4′-[1,3]oxazine]-7-yl)-5-cyanopicolinamide]
124 nM | 380 nM | NC1=N[C@@]2(CCOc3ccc(-c4cncc(Cl)c4)cc32)C(F)(F)CO1 [Example 19, (R)-6-(5-Chloropyridin-3-yl)-5′,5′-difluoro-5′,6′-dihydrospiro[chroman-4,4′-[1,3]oxazin]-2′-amine]
3990 nM | 2020 nM | NC1=N[C@@]2(CCOc3ccc(-c4cc(Cl)cc(Cl)c4)cc32)C(F)(F)CO1 [Example 20, (R)-6-(3,5-dichlorophenyl)-5′,5′-difluoro-5′,6′-dihydrospiro[chroman-4,4′-[1,3]oxazin]-2′-amine]
926 nM | 2780 nM | COc1cncc(-c2ccc3c(c2)[C@@]2(CCO3)N=C(N)OCC2(F)F)c1 [Example 22, (R)-5′,5′-difluoro-6-(5-methoxypyridin-3-yl)-5′,6′-dihydrospiro[chroman-4,4′-[1,3]oxazin]-2′-amine]
1950 nM | 676 nM | NC1=N[C@@]2(CCSc3ccc(-c4cncc(Cl)c4)cc32)C(F)(F)CO1 [Example 32, (R)-6′-(5-Chloropyridin-3-yl)-5,5-difluoro-5,6-dihydrospiro[[1,3]oxazine-4,4′-thiochroman]-2-amine]
986 nM | 360 nM | NC1=N[C@@]2(CCOc3ccc(NC(=O)c4ccc(Cl)cn4)cc32)C(F)(F)CO1 [Example 33, (R)—N-(2′-Amino-5′,5′-difluoro-5′,6′-dihydrospiro[chroman-4,4′-[1,3]oxazine]-6-yl)-5-chloropicolinamide]
1920 nM | 80 nM | N#Cc1ccc(C(=O)Nc2ccc3c(c2)[C@@]2(CCO3)N=C(N)OCC2(F)F)nc1 [Example 34, (R)—N-(2′-Amino-5′,5′-difluoro-5′,6′-dihydrospiro[chroman-4,4′-[1,3]oxazine]-6-yl)-5-cyanopicolinamide]
– | 1250 nM | NC1=N[C@@]2(CCOc3ccc(NC(=O)c4[nH]ncc4Cl)cc32)C(F)(F)CO1 [Example 35]
– | 2260 nM | CC1(C)C[C@@]2(N=C(N)OCC2(F)F)c2cc(NC(=O)c3ccc(Cl)cn3)ccc2O1 [Example 40, (R)—N-(2′-Amino-5′,5′-difluoro-2,2-dimethyl-5′,6′-dihydrospiro[chroman-4,4′-[1,3]oxazine]-6-yl)-5-chloropicolinamide]
– | 230 nM | CC1(C)C[C@@]2(N=C(N)OCC2(F)F)c2cc(NC(=O)c3ccc(C#N)cn3)ccc2O1 [Example 41, (R)—N-(2′-Amino-5′,5′-difluoro-2,2-dimethyl-5′,6′-dihydrospiro[chroman-4,4′-[1,3]oxazine]-6-yl)-5-cyanopicolinamide]
438 nM | 35 nM | NC1=N[C@@]2(CCSc3ccc(NC(=O)c4ccc(Cl)cn4)cc32)C(F)(F)CO1 [Example 42, (R)—N-(2-Amino-5,5-difluoro-5,6-dihydrospiro[[1,3]oxazine-4,4′-thiochroman]-6′-yl)-5-chloropicolinamide]
– | 6960 nM | NC1=N[C@@]2(CCS(=O)(=O)c3ccc(NC(=O)c4ccc(Cl)cn4)cc32)C(F)(F)CO1 [Example 45, N-[(4R)-2-amino-5,5-difluoro-1′,1′-dioxido-2′,3′,5,6-tetrahydrospiro[1,3-oxazine-4,4′-thiochromen]-6′-yl]-5-chloropyridine-2-carboxamide]
– | 3400 nM | N#Cc1ccc(C(=O)Nc2ccc3c(c2)[C@@]2(CCS3(=O)=O)N=C(N)OCC2(F)F)nc1 [Example 46, N-[(4R)-2-amino-5,5-difluoro-1′,1′-dioxido-2′,3′,5,6-tetrahydrospiro[1,3-oxazine-4,4′-thiochromen]-6′-yl]-5-cyanoopyridine-2-carboxamide]
– | 240 nM | N#Cc1ccc(C(=O)Nc2ccc3c(c2)[C@@]2(CCC3)N=C(N)COCC2(F)F)nc1 [Example 47, (R)—N-(3′-Amino-6′,6′-difluoro-3,4,6′,7′-tetrahydro-2H,2′H-spiro[naphthalene-1,5′-[1,4]oxazepine]-7-yl)-5-cyanopicolinamide]
– | 450 nM | NC1=N[C@@]2(CCCc3ccc(NC(=O)c4ccc(Cl)cn4)cc32)C(F)(F)COC1 [Example 48, (R)—N-(3′-Amino-6′,6′-difluoro-3,4,6′,7′-tetrahydro-2H,2′H-spiro[naphthalene-1,5′-[1,4]oxazepine]-7-yl)-5-chloropicolinamide]
– | 830 nM | N#Cc1ccc(C(=O)Nc2ccc3c(c2)[C@@]2(CCO3)N=C(N)COCC2(F)F)nc1 [Example 49, (R)—N-(3′-Amino-6′,6′-difluoro-6′,7′-dihydro-2′H-spiro[chroman-4,5′-[1,4]oxazepine]-6-yl)-5-cyanopicolinamide]
– | 2130 nM | NC1=N[C@@]2(CCOc3ccc(NC(=O)c4ccc(Cl)cn4)cc32)C(F)(F)COC1 [Example 50, (R)—N-(3′-Amino-6′,6′-difluoro-6′,7′-dihydro-2′H-spiro[chroman-4,5′-[1,4]oxazepine]-6-yl)-5-chloropicolinamide]
– | 1160 nM | NC1=N[C@@]2(CCOc3ccc(-c4cncc(Cl)c4)cc32)C(F)(F)COC1 [Example 54, (R)-6-(5-Chloropyridin-3-yl)-6′,6′-difluoro-6′,7′-dihydro-2′H-spiro[chroman-4,5′-[1,4]oxazepin]-3′-amine]
